Reference: patent US6670329B2, “Selenocosmia huwena toxin and analgesic uses thereof” (priority 2000, dated 2003)
pEC50: −log10 of the molar value. Values joined by “and” are separate entries in the source; they are usually repeats but may differ in a detail not shown here. Equal values may be shown once.

How the values were obtained:
[1] = test system: high-voltage-activated Ca2+ channel expressed in prostaglandin E1 differentiated NG108-15 cells; experiment: Ca2+ channel inhibition assay (patch clamp, Ba2+ as charge carrier); format: cell-based
Description: (§1) Ca^2+ channel Inhibition Assay. […] Cells were cultured in 90% Dulbecco's modified Eagle's medium (DMEM) with 10% newborn calf serum, hypoxanthine aminopterin thymidine supplement and penicillin-streptomycin. Cells were transferred to plates for electrophysiological experiments and cultured with 1% calf serum and […] DMEM. Prostaglandin E1 (10 μM) and 3-isobutyl-1-methylxanthine (50 μM) were added to the medium. Macroscopic Ca^2+ channel currents (filtered at 10 kHz, digitized at […] with a EPC-9 patch clamp amplifier, HEKA Electronics, Germany) were recorded at room temperature using Ba^2+ as the charge carrier. Cells were held at −40 mV potential and then depolarized to 0 mV. […] Inhibition was dose dependent. The EC50 for inhibition was approximately 100 nM (EC50≈100 nM). HWAP-I is highly specific for this channel as the low-voltage-activated Ca^2+ channel was unaffected.

[2] = test system: low-voltage-activated Ca2+ channel; experiment: Ca2+ channel inhibition assay, low-voltage-activated channel; format: cell-based
Description: as §1

[3] = test system: rats; experiment: rat tail flick pain threshold, subarachnoid space administration; format: in vivo; conditions: for increase of pain threshold: in an hour
Description: The method was testing using the rat experimental system. After anesthesia, the neck skin of a rat was cut. The occcipital membrane was exposed and a hole with 1 mm diameter was made with #5 needle. […] The insertion position of the tube was later confirmed by anatomization after experiment.
Assays were performed in 1-3 days after the operation. 28 rats (130-230 g), of either gender, whose basic pain thresholds were within 2-4 seconds, were chosen and divided randomly into four groups of seven rats.

[4] = test system: Sprague-Dawley rats; conditions: rat, in vivo
Description: Adult Sprague-Dawley rats were anesthetized with 2% sodium pentobarbital (40 mg/kg, ip.). The neck skin was cut to expose the occipital membrane. HWAP-I, formulated in normal saline, was administered by a PE-10 polyethylene tube (14 cm) inserted into the epidural space (depth of insert: 7 cm) to the site of intumescence at the rats' waist. The insertion position of the tube was confirmed by anatomization after the experiment.
Pain tolerance assays were performed 1-4 days after the operation. A healthy rat was put into a fixed canister with its tail drooping from the bottom of the vessel. There were three spots on the tail labeled for irradiation. The intensity of light was adjusted so that the tail flick latency (TFL) of rat was within 2-4 seconds. The average of TFLs determined three times before drug treatment was deemed the baseline pain threshold of the rat. HWAP-I was administered to the rat using the inserted tube. After 20 minutes, the pain threshold was determined. The analgesic effect (AE) was calculated according the following formula: [formula]
wherein Tp is the TLF post-drug treatment, and TB is the baseline pain threshold.
The upper limit of the increased rate of pain threshold was 200% in order to avoid hurting the skin of rat-tail, e.g.., when the baseline pain threshold was 3 seconds. Irradiation was stopped as soon as the TFL exceeded 9 seconds.
54 rats (160-220 g), of either gender, whose TB basic pain thresholds were within 3-4 seconds, were chosen and divided randomly into six groups of nine rats. The rats in each group were treated with HWAP-I at a dose of 120 μg/kg, 180 μg/kg, 240 μg/kg, 300 μg/kg, 360 μg/kg respectively and with normal saline in control group.

[5] = test system: mouse phrenic nerve-diaphragm preparation; experiment: mouse phrenic nerve-diaphragm assay for inhibition of neuromuscular transmission
[6] = test system: New Zealand rabbits; conditions: rabbit, in vivo

| Compound | inhibition of the Ca2+ current ([1]; 10 μM, held at −40 mV, depolarized to 0 mV) | pEC50 ([1]; NG108-15 cells, room temperature, read-out: EC50 for inhibition of Ca2+ current) | effect on low-voltage-activated Ca2+ channel [2] | duration of analgesic effect compared with morphine hydrochloride (5 μg/kg) ([3]; subarachnoid) | increase of pain threshold ([3]; subarachnoid, 1.5 μg/kg) | duration of analgesic effect ([3]; subarachnoid, 3.0 μg/kg) | increase of pain threshold ([3]; subarachnoid, 3.0 μg/kg) | adverse effects ([3]; subarachnoid, 8 μg/kg, most restored to normal without sequela) | analgesic effect ([3]; subarachnoid, 0.6, 1.5, 3.0 μg/kg) | adverse effects [4] | analgesic effect [4] | duration time of analgesic effect [4] | increase of pain threshold [4] | duration of block of neuromuscular transmission ([5]; 1·10^−5 g/ml) | effect on indirect twitch response ([5]; electrical stimulation of phrenic nerve) | analgesic effect in formalin pain model [6] | duration of the analgesic effect [6] | toxic side effects [6] | analgesic effect decreased from maximum to, within a single hour [4] |
| --- | --- | --- | --- | --- | --- | --- | --- | --- | --- | --- | --- | --- | --- | --- | --- | --- | --- | --- | --- |
| NH2-Ala-Cys-Lys-Gly-Val-Phe-Asp-Ala-Cys-Thr-Pro-Gly-Lys-Asn-Glu-Cys -Cys-Pro-Asn-Arg-Val-Cys-Ser-Asp-Lys-His-Lys-Trp-Cys-Lys-Trp-Lys-Leu-COOH (H-ACKGVFDACTPGKNECCPNRVCSDKHKWCKWKL-OH; cysteine pairing not given here) [HWAP-I] | potent inhibitor | ~7.00 | unaffected | longer than that of morphine | 40-50% | over 3 hours | 100% | becoming ataxic in the quarters | had analgesic effects | ataxia in the quarters | had analgesic effects | over 3 hours | 50-70% and 100% | 14.3 ± 3.2 min | inhibition of the indirect twitch response | potent and robust analgesic effect | 5 to 6 h | no obvious toxic side effects were observed | – |
| CN1CC[C@]23c4c5ccc(O)c4O[C@H]2[C@@H](O)C=C[C@H]3[C@H]1C5.Cl [morphine, morphine hydrochloride, reference compound] | – | – | – | – | – | – | – | – | – | – | – | – | – | – | – | – | – | – | 50% |
